According to patent publication US20260297037A1, “COMPOUND COMPRISING N-METHYLPIPERAZINE ETHANOL CARBAMATE STRUCTURE AND USE THEREOF” (KOREA INSTITUTE OF RADIOLOGICAL & MEDICAL SCIENCES, priority 2023, published 2026):

What was measured:
Type in all cases: in vivo, C57BL/6 mice
[1] = tested on: radiation-induced pulmonary fibrosis (RIPF); test: Degree of inflammation and fibrosis, H&E and Masson's Trichrome staining, radiation-induced pulmonary fibrosis; settings: SBRT 90 Gy, nintedanib 60 mg/kg, oral, 2 weeks after radiation exposure, vs untreated
Procedure: (§1) One hour before stereotactic body radiation therapy (SBRT; 90 Gy, 4 mm collimator), DCTP and nintedanib, an FDA-approved drug known to inhibit pulmonary fibrosis, were orally administered to seven-week-old male C57BL/6 mice. The degree of pulmonary fibrosis and the inhibitory effect on radiation-induced lung injury were observed two weeks after radiation exposure.
(§2) The DCTP drug was administered at a dose of 30 mg/kg, and nintedanib was administered once daily (o.d.) at a dose of 60 mg/kg.
In addition, to analyze the degree of inflammatory response and the degree of fibrosis two weeks after radiation exposure, H&E staining and Masson's Trichrome staining were performed, and the results are shown in FIG. 5.
as §1, with “prior to” for “before”, “PXDP” for “DCTP”
(§3) The PXDP drug was administered at a dose of 100 mg/kg, and nintedanib was administered once daily (o.d.) at a dose of 60 mg/kg. To analyze the degree of inflammatory response and the degree of fibrosis 2 weeks after radiation exposure, H&E staining and Masson's Trichrome staining were performed, and the results are shown in FIG. 11.

[2] = tested on: idiopathic pulmonary fibrosis induced by bleomycin; test: Inhibitory effect on idiopathic pulmonary fibrosis induced by bleomycin, Micro-CT imaging; settings: bleomycin 1.5 U/kg, nintedanib 60 mg/kg, oral once daily for two weeks from day 14, 4 weeks after bleomycin, vs untreated
Procedure: (§4) Each drug was administered starting 14 days after the administration of bleomycin. The drug was orally administered at a dose of 20 mg/kg once daily for two weeks (a total of 13 administrations). The control drug, nintedanib, was administered at a dose of 60 mg/kg, and the co-administration group was orally administered nintedanib (60 mg/kg) together with DCTP (20 mg/kg) once daily for two weeks (a total of 13 administrations).
(§5) Each drug was administered starting 14 days after the administration of bleomycin. Nintedanib and PXDP were each orally administered at a dose of 60 mg/kg once daily for two weeks (a total of 13 administrations), and the group treated with the combination was orally administered nintedanib (60 mg/kg) together with PXDP (60 mg/kg) once daily for two weeks (a total of 13 administrations).

[3] = tested on: idiopathic pulmonary fibrosis induced by bleomycin; test: Degree of inflammation and fibrosis, H&E and Masson's Trichrome staining, bleomycin-induced idiopathic pulmonary fibrosis; settings: bleomycin 1.5 U/kg, nintedanib 60 mg/kg, oral once daily for two weeks from day 14, vs untreated
Procedure: as §4
The results of H&E and Masson's Trichrome staining performed to evaluate the degree of inflammation and fibrosis are shown in FIG. 3.
as §5
The results of H&E and Masson's Trichrome staining performed to evaluate the degree of inflammation and fibrosis are shown in FIG. 8.

[4] = tested on: radiation-induced pulmonary fibrosis (RIPF); test: Inhibitory effect on radiation-induced pulmonary fibrosis, Micro-CT imaging; settings: SBRT 90 Gy, 2 weeks after radiation exposure; for degree of fibrosis by Micro-CT imaging: vs untreated
Procedure: as §1, §2
as §1, with “prior to” for “before”, “PXDP” for “DCTP”
as §3

[5] = Example 3, FIG. 5, DCTP 30 mg/kg
[6] = Example 5, FIG. 7, PXDP 60 mg/kg
[7] = Example 5, FIG. 8, PXDP 60 mg/kg
[8] = Example 6, FIG. 10, PXDP 100 mg/kg, nintedanib 60 mg/kg, oral
[9] = Example 6, FIG. 11, PXDP 100 mg/kg

| SMILES | degree of inflammation and fibrosis by H&E and Masson's Trichrome staining [1, 5] | degree of fibrosis by Micro-CT imaging [2, 6] | degree of inflammation and fibrosis by H&E and Masson's Trichrome staining [3, 7] | effect compared with nintedanib (Micro-CT imaging) ([4]; Example 6, FIG. 10, PXDP 100 mg/kg vs nintedanib 60 mg/kg, oral) | degree of fibrosis by Micro-CT imaging [4, 8] | degree of inflammation and fibrosis by H&E and Masson's Trichrome staining [1, 9] | degree of fibrosis by Micro-CT imaging ([2]; Example 2, FIG. 2, DCTP 20 mg/kg) | degree of inflammation and fibrosis by H&E and Masson's Trichrome staining ([3]; Example 2, FIG. 3, DCTP 20 mg/kg) | degree of fibrosis by Micro-CT imaging ([4]; Example 3, FIG. 4, nintedanib 60 mg/kg oral once daily) |
| --- | --- | --- | --- | --- | --- | --- | --- | --- | --- |
| COc1cc2ncnc(N(C(=O)OCCN3CCN(C)CC3)c3ccc(F)c(Cl)c3)c2cc1NC(=O)/C=C/CN1CCCCC1 [DCTP, 2-(4-methylpiperazin-1-yl)ethyl (E)-(3-chloro-4-fluorophenyl) (7-methoxy-6-(4-(piperidin-1-yl)but-2-enamido)quinazolin-4-yl) carbamate] | reduction in fibrosis and inflammation in the lungs |  |  |  |  |  |  |  |  |
| CN1CCN(CCOC(=O)N(Cc2ccc(C(F)(F)F)nc2)c2ccc(Cc3c[nH]c4ncc(Cl)cc34)cn2)CC1 [PXDP, 2-(4-methylpiperazin-1-yl)ethyl (5-((5-chloro-1H-pyrrolo[2,3-b]pyridin-3-yl)methyl)pyridin-2-yl)((6-(trifluoromethyl)pyridin-3-yl)methyl) carbamate] |  | reduction in the degree of fibrosis | alleviation of pulmonary fibrosis and inflammation | superior to that of nintedanib | reduction in the degree of fibrosis | alleviation of fibrosis and inflammation in the lungs |  |  |  |
| COC(=O)c1ccc2c(c1)NC(=O)/C2=C(\Nc1ccc(N(C)C(=O)CN2CCN(C)CC2)cc1)c1ccccc1 [nintedanib] | reduction in fibrosis and inflammation in the lungs | reduction in the degree of fibrosis | alleviation of pulmonary fibrosis and inflammation |  | reduction in the degree of fibrosis | alleviation of fibrosis and inflammation in the lungs | reduction in the degree of fibrosis | alleviation of pulmonary fibrosis and inflammation | reduction in the degree of fibrosis |
